Here are results for eleven molecules from patent US20100069393A1, “METHOD OF TREATMENT AND AGENTS USEFUL FOR SAME” (PRANA BIOTECHNOLOGY LIMITED, priority 2006, published 2010).

Series [1] in a line: In vivo toxicity, visual observations. The following applies: 30 mg/kg, number of days.
A short description of series [2]: Neurotoxicity assay: MTS viability of primary cortical neuronal cultures. In kind it is cell-based, mouse. The following applies: BL6Jx129sv, mouse, primary cortical neuronal cultures, Neuronal cells, read-out: Cytotoxicity (% viable at 1 and 10 uM); for viability at 4 days, 1 uM: test compound 1 uM; for viability at 4 days, 10 uM: test compound 10 uM.
The nature of series [3]: Cytotoxicity: viability of M17 cells. Conditions: human, M17 neuroblastoma cells, Cytotoxicity (% viable at 1 and 10 uM); for viability at 1 uM: test compound 1 uM; for viability at 10 uM: test compound 10 uM.
Series [4] can be described thus: E Log D (chromatographic method, pH 7.4). It is filed as physicochemical. As to the method: Effective Log D values were measured using a chromatographic method employing a SUPELCOSIL LC-ABZ column using an octanol saturated mobile phase at pH 7.4. See F. Lombardo et al, J. Med. Chem. 2000, 43, 2922-2928.
The nature of series [5]: Blood brain barrier penetration (brain:plasma ratio after IV dose). It is filed as in vivo. Conditions: nominal dose 5 mg/kg, male Swiss Outbred mice. The procedure: A bolus injection of each of the test compound (50 μL of a 3 mg/mL aqueous solution containing 40% propylene glycol and 10% ethanol) was administered by tail vein injection to male Swiss Outbred mice (5-7 weeks of age).
At 5 and 60 min post-dose (n=3 mice at each time point), blood was collected by cardiac puncture and the whole brain was removed by making an incision through the back of the skull. Mice were anaesthetised approximately 3-4 min prior to blood and brain harvest with an intraperitoneal injection of ketamine and xylazine (133 mg/kg and 10 mg/kg, respectively).
The whole brain was placed into preweighed polypropylene vials and stored at −20° C. until analysis. On the day of analysis, the whole brain was homogenised in 3 parts of water (on ice to reduce the potential for ex vivo brain degradation) and an aliquot of the brain homogenate and plasma was analysed for compound concentration by LCMS. Standards were prepared by spiking blank brain homogenate and both samples and standards were processed by adding acetonitrile to the tissue homogenate, centrifuging and injecting an aliquot of the supernatant onto the LCMS.
To ensure complete recovery of compound from the brain, brain homogenate was spiked with compound (in 50% acetonitrile:50% water) to a nominal concentration of 500 ng/mL. The concentration of compound in the supernatant was then determined by LCMS and compared to the supernatant concentration when compound was added following precipitation with acetonitrile.

Series [6] in a line: Mice plasma concentration. In kind it is in vivo. Conditions: for Mice plasma concentration: presence in plasma at one or two time points (between 30 min and 4 h); for Mice plasma concentration in Tg mice: one or two time points (between 30 min and 4 h).
Another series in a line: in vitro. Conditions: human, Cytotoxicity (% viable at 1 and 10 uM).
Series [7] is described as follows: Phase I safety and tolerability in healthy volunteers. It is filed as in vivo, human. As to the method:
Compound B was administered to healthy volunteers in a 2-part study comprising single dose administration (Stage A) and multidose administration (Stage B).
The objectives of the Phase I trials were to determine the safety, tolerability and pharmacokinetics of single and multiple oral doses of Compound B in healthy volunteers. The double-blind studies were conducted at a Phase I unit in The Netherlands. The protocol included safety measures designed to capture the potential human adverse effects. A total of 65 healthy subjects have been exposed to doses of Compound B (41 single dose, 24 multiple dose).
In Stage A, fifty five (55) healthy male subjects aged 18-50 years were randomised (3:1) to receive a single oral dose of either placebo or Compound B at one of 7 dose levels (25, 50, 100, 200, 300, 500 or 800 mg).
In Stage B, thirty two (32) healthy male and female subjects aged 45-75 years (eight subjects per dose level) were randomised (3:1) to receive a daily oral dose over 7 consecutive days of either placebo or Compound B at one of 4 dose levels (200, 400, 600 or 800 mg). Each dose level comprised of 4 males and 4 females; the randomisation schedule ensuring that 1 subject/sex received placebo and 3 subjects/sex received Compound B.

Series [8] has as its system primary cortical neuronal cultured cells. Description: Neurotoxicity assay: MTS viability of primary cortical neuronal cultures. In kind it is cell-based, mouse.
The test system of series [9] is M17 human neuroblastoma cells. Briefly: Cytotoxicity: viability of M17 cells.

With `Oc1c(I)cc(Cl)c2cccnc12`, in [1], the “Toxicity at 30 mg/kg” value was “none”. Further, in series [2], the viability at 4 days, 1 uM is 90% and the viability at 4 days, 10 uM came to 77%. In [3], the viability at 1 uM is 107% and the viability at 10 uM was 72.7%. Besides, the “ElogD (E)” value in [4] is recorded as 1.85. In addition, in series [5] (5 min post dose), the “B:P Ratio” value came to 0.20. Moreover, the “B:P Ratio” value in series [5] (60 min post dose) is listed as 0.17. The Mice plasma concentration entry in series [6] is on record as “Up to 700 ng/mL”.
`Oc1c(N2CCOCC2)ncc2cccnc12`: in series [1], the “Toxicity at 30 mg/kg” value is 10 days, mild toxic signs. Also, in [2], the viability at 4 days, 1 uM was found to be 104% and the viability at 4 days, 10 uM is 98%. In addition, in [3], the viability at 1 uM was found to be 112% and the viability at 10 uM came to 93.7%. The “ElogD (E)” value in series [4] is listed as 1.45. The “Mice plasma concentration in Tg mice” value in series [6] is listed as “Below 80 ng/mL in Tg mice”.
Consider `O=c1c2c(Cl)cc(Cl)c(O)c2ncn1-c1ccc(F)cc1`, for which the “Toxicity at 30 mg/kg” value in series [1] is given as 5 days, none. For the same molecule, in series [2], the viability at 4 days, 1 uM is 98% and the viability at 4 days, 10 uM is 67%. In addition, in series [3], the viability at 1 uM was 93.2% and the viability at 10 uM worked out at 47.3%. Besides, the “ElogD (E)” value in series [4] was determined as 5.32. For the same molecule, the “Mice plasma concentration in Tg mice” value in series [6] is recorded as “Up to 120 ng/mL in Tg mice”.
On to `O=c1c2c(Cl)cc(Cl)c(O)c2ncn1Cc1ccccn1`, for which the “Toxicity at 30 mg/kg” value in series [1] is given as 10 days, none. Moreover, in [2], the viability at 4 days, 1 uM is 99% and the viability at 4 days, 10 uM is 98%. In [3], the viability at 1 uM is 102% and the viability at 10 uM was determined as 98.9%. In series [5] (5 min post dose), the “B:P Ratio” value is listed as 0.16. For the same molecule, in [5] (60 min post dose), the “B:P Ratio” value was found to be 0.10. Moreover, the Mice plasma concentration result in [6] is reported as “Up to 984 ng/mL”.
For `Cc1nc(Cn2cnc3c(O)c(Cl)cc(Cl)c3c2=O)cs1`, the “Toxicity at 30 mg/kg” value in series [1] is recorded as 10 days, none. In addition, in [2], the viability at 4 days, 1 uM stood at 100% and the viability at 4 days, 10 uM was found to be 93%. In series [3], the viability at 1 uM was found to be 97% and the viability at 10 uM worked out at 95.7%. The “B:P Ratio” value in [5] (5 min post dose) is 0.10 at 5 min, 0.10 at 60 min. Also, the “B:P Ratio” value in [5] (60 min post dose) is reported as 0.10 at 5 min, 0.10 at 60 min. Further, the Mice plasma concentration result in [6] is on record as “Up to 2439 ng/mL”.
`Cc1noc(C)c1Cn1cnc2c(O)c(Cl)cc(Cl)c2c1=O`: in [1], the “Toxicity at 30 mg/kg” value is listed as 10 days, none. For the same molecule, in series [2], the viability at 4 days, 1 uM is 99% and the viability at 4 days, 10 uM was 72%. Further, in series [3], the viability at 1 uM is 104% and the viability at 10 uM was determined as 76%. For the same molecule, in series [5] (5 min post dose), the “B:P Ratio” value is listed as 0.18. In series [5] (60 min post dose), the “B:P Ratio” value is on record as 0.08. In addition, the Mice plasma concentration result in [6] was “Up to 3644 ng/mL”.
In the case of `O=c1c2cccc(O)c2ncn1Cc1cn2ccccc2n1`, in “in vitro”, the viability at 1 uM amounted to 95% and the viability at 10 uM was found to be 98.4%.
With `CN(C)Cc1ccc2c(Cl)cc(Cl)c(O)c2n1` [Compound B], the “incidence of adverse events” value in [7] (Stage A, single oral dose 25-800 mg, healthy male volunteers aged 18 to 50 years) is on record as 43.9%. Also, the tolerability result in series [7] (Stage A, single oral dose, healthy male volunteers aged 18 to 50 years) is reported as “well tolerated”; in series [7] (Stage B, daily oral dose over 7 days (200-800 mg), healthy subjects aged 45-75 years), “generally well tolerated”.
Take `CN(C)Cc1ccc2c(Cl)cc(Cl)c(O)c2n1.Cl` [drawing 119]: the “Toxicity at 30 mg/kg” value in series [1] is “None”. Moreover, in [2], the viability at 4 days, 1 uM is 84% and the viability at 4 days, 10 uM is 72%. Moreover, in series [3], the viability at 1 uM came to 94% and the viability at 10 uM was 54.3%. Also, the “B:P Ratio” value in [5] (5 min post dose) came to 12.85. Also, the “B:P Ratio” value in series [5] (60 min post dose) was 9.45. The Mice plasma concentration entry in [6] was “Up to 500 ng/ml ng/mL”.
With `CCC(C)n1cnc2c(O)c(Cl)cc(Cl)c2c1=O` (stereo not shown) [drawing 189], in series [1], the “Toxicity at 30 mg/kg” value was 10 days, none. Moreover, the “Cytotoxicity (% viable at 1 and 10 uM)” value is 94% in series [8] (test compound 1 uM), 67% in series [8] (test compound 10 uM), 99.2% in series [9] (test compound 1 uM) and 68.6% in series [9] (test compound 10 uM). The Mice plasma concentration result in series [6] is “Up to 2949 ng/mL”.
In the case of `O=c1c2c(Cl)cc(Cl)c(O)c2ncn1-c1ccccn1` [drawing 288], the “Toxicity at 30 mg/kg” value in [1] is listed as 10 days, none. Besides, the “Cytotoxicity (% viable at 1 and 10 uM)” value in series [9] (test compound 1 uM) is listed as 107.8%; in series [9] (test compound 10 uM), 89.2%. The Mice plasma concentration entry in series [6] is given as “Up to 144.2 ng/mL”.
